Consider 32 molecules from the METLIN SMRT retention time set (Domingo-Almenara et al. 2019).

This data set in a line: gradient 5% acetonitrile 3 min, to 50% in 2 min, to 85% in 15 min, held 3 min, 100 µL/min. Particulars: column: Zorbax Extend-C18 2.1 x 50 mm; eluents: water / acetonitrile, 0.1% formic acid. The procedure, abridged: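 Standards, all pure, were combined into mixtures of ~100 molecules and run at 100 μL/min on a Zorbax Extend-C18 column (2.1 × 50 mm, 1.8 μm) with water and acetonitrile, each containing 0.1% formic acid. A coupled quadrupole time-of-flight mass spectrometer operated in positive and negative ionization mode. Retention time values come from computationally picked adduct peaks, each inspected manually.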
Turning to `Fc1ccc(Nc2nc(N3CCOCC3)nc3c2cnn3-c2ccccc2)cc1`, the RP-LC retention time was 1170 s.

For the molecule `CC(C)N(CCCNC(=O)Cn1cc2c(n1)CCCCC2)Cc1ccccc1`, the RP-LC retention time is 674 s.

`CCn1cc(C(=O)Nc2cc(Cl)ccc2C)c2cccnc21` had an RP-LC retention time of 922 s.

As for `Cc1cc(C)cc(Nc2nc(C)cc(=O)n2CC(=O)NC(C)CCc2ccccc2)c1` (configuration not stated), the RP-LC retention time was 1030 s.

In turn, `O=C(COc1ccccc1)Nc1nnc(SCC(=O)N2CCCc3ccccc32)s1` returned an RP-LC retention time of 859 s.

For the molecule `O=C(c1cnn(-c2cccc(F)c2)c1-n1cccc1)N1CCN(c2ccccn2)CC1`, the RP-LC retention time is 664 s.

`COc1cccc(CNC(=O)C2CCN(c3cc(N4CCOCC4)ncn3)CC2)c1` registered an RP-LC retention time of 616 s.

Consider `CCn1cc(S(=O)(=O)N2CC(N(C)Cc3cccnc3)C2)cn1`, for which the RP-LC retention time is 565 s.

`COc1ccc(-c2nnc3n2CCN(Cc2cn(C)nc2C)C3)cc1` gave an RP-LC retention time of 552 s.

Regarding `Cn1nc(C(=O)N2CCC(C(=O)NC3CCCCCC3)CC2)c2c1CCN(C(=O)c1ccccc1)C2`, the RP-LC retention time was 742 s.

Molecule `O=C(Nc1cccc(Br)c1)N1CCc2nc(-c3ccc(Cl)cc3)ncc2C1` registered an RP-LC retention time of 1190 s.

For `COc1ccccc1-c1nc2n(n1)C1(CCCCC1)[C@@H]1CCCC[C@@H]1N2C(=O)c1ccco1`, the RP-LC retention time came out at 1200 s.

In turn, `COc1cccc(Cn2nc(-c3nc(-c4ccc(Cl)cc4)no3)ccc2=O)c1` displayed an RP-LC retention time of 1190 s.

In turn, `COc1ccc2nc(C(=O)NCc3ccc(F)cc3)cn2n1` displayed an RP-LC retention time of 783 s.

`COc1ccc(N2CCN(c3ncc4c(n3)CCN(Cc3ccc(C)cc3)C4)CC2)cc1` had an RP-LC retention time of 675 s.

For `CNC(=O)[C@@H]1C[C@H](Oc2cccnc2)CN1C(=O)C1CCC1`, the RP-LC retention time came out at 540 s.

In the case of `O=C(NCc1csc(-c2ccccc2)n1)C1CCCN(c2ccc(-c3ccco3)nn2)C1` (configuration not stated), the RP-LC retention time came to 641 s.

Regarding `O=S(=O)(NCCS(=O)(=O)N1CCc2ccccc21)c1cccnc1`, the RP-LC retention time is 700 s.

`CCN1CCCC1CNC(=O)C1CCN(S(=O)(=O)c2ccc3c(ccn3CC)c2)CC1` (configuration not stated) returned an RP-LC retention time of 664 s.

`CSc1nc(N2CCCC2)c2cnn(CCNC(=O)c3cc(-c4ccccc4)n[nH]3)c2n1` returned an RP-LC retention time of 761 s.

`CC(C)C(=O)Nc1ccc(C(=O)Nc2nc(-c3ccccc3)cs2)cc1` showed an RP-LC retention time of 949 s.

In turn, `NC(=O)C1CCN(c2nc3ccccc3nc2S(=O)(=O)Cc2ccc(Cl)cc2)CC1` showed an RP-LC retention time of 876 s.

Consider `O=[N+]([O-])c1ccc(-c2cn3ccccc3n2)cc1`, for which the RP-LC retention time came out at 598 s.

`COC(=O)C1C(c2ccccc2)=NN(c2ccccc2)C1C(=O)OC` (configuration not stated) displayed an RP-LC retention time of 1090 s.

`CCOc1ccc2nc(NC(=O)c3cc(=O)c(OCc4ccccc4)cn3C)sc2c1`: the RP-LC retention time is 741 s.

The molecule `CN(C)C(=O)c1cc2c(s1)CCC(C(=O)Nc1ccccc1)C2` (configuration not stated) returned an RP-LC retention time of 772 s.

In the case of `Cn1cccc1-c1cc2n(n1)CCC(=O)N2CCCC(=O)NCCCN1CCCCCC1`, the RP-LC retention time amounted to 607 s.

`Cc1cc(C)c(S(=O)(=O)Nc2ccc(Cn3cncn3)cc2)c(C)c1` yielded an RP-LC retention time of 798 s.

With `CC(C)(C)c1csc(-c2csc(S(=O)(=O)NCc3ccccc3)c2)n1`, the RP-LC retention time was found to be 1230 s.

The molecule `Cc1ccc(Nc2cc(C)nc(N3CCN(C(=O)Nc4cccc(Cl)c4)CC3)n2)cc1` returned an RP-LC retention time of 800 s.

On to `O=C(NC1CC1)[C@@H]1C[C@H](Oc2cccnc2)CN1C(=O)c1ccsc1`, for which the RP-LC retention time is 630 s.

In turn, `COc1cc(-n2c(=O)c3ccccc3n(Cc3ccccc3C#N)c2=O)cc(OC)c1OC` gave an RP-LC retention time of 805 s.
